Assay results taken from patent publication US20020061888A1, “Combination therapy for the prophylaxis and treatment of hyperlipidemic conditions and disorders” (priority 2000, published 2002).

Legend:
Type in all cases: in vivo
Male beagle dogs [1] = experiment: Fecal bile acid concentration in beagle dogs (enzymatic 3α-hydroxysteroid dehydrogenase assay of fecal extracts); conditions: for FECAL BILE ACID CONCENTRATION: n = 6; for % change in fecal bile acid: Week 2, footnote: vs pretreatment, text b128: vs vehicle
Method: Male beagle dogs (9-10 kg) obtained from Marshall farms were fed a normal chow diet once a day for a two hour interval and given water ad libitum. Prior to initiating treatment, the dogs were weighed and blood samples were drawn from the cephalic vein of each dog following an overnight fast to evaluate pretreatment serum total cholesterol levels at the start of the study. […] All doses were administered in gelatin capsules per os to each dog between 9:00-9:30 a.m. prior to feeding. All animals were fed between 9:30-10:00 a.m. and were allowed two hours to eat, at which time any remaining food was removed. […] Three consecutive 24 hour fecal samples were collected for each group during the last 72 hours of each week and used to measure the concentration of fecal biles acids excreted during that time period.
Fecal samples were collected to determine the fecal bile acid (“FBA”) concentration for each animal. Three consecutive 24 hour fecal samples were collected between 8:00 a.m. and 9:00 a.m. each day, prior to dosing and feeding, during the last 72 hour period of each week. The separate daily collections from each dog were weighed, combined and homogenized with distilled water in a food processor to generate a homogeneous slurry. A 1.4 g sample of fecal homogenate was extracted with 2.6 mL of a solution containing tertiary butanol:distilled water in the ratio of 2:0.6 (final concentration of 50% tertiary butanol v/v distilled water) for 45 minutes in a 37° C. water bath and centrifuged for 13 minutes at 2000 x g. The concentration of bile acids (μmoles/gram homogenate) was determined using a 96-well enzymatic assay system described in van der Meer et al., “t-Butanol Extraction of Feces: A Rapid Procedure For Enzymic Determination Of Fecal Bile Acids”, Cholesterol, Metabolism in Health and Disease: Studies in the Netherlands, edited by Beynen, et al., Ponsen and Looyen, Wageningen, 1985; and Turley et al., “Re-evaluation of the 3 Alpha-Hydroxysteroid Dehydrogenase Assay For Total Bile Acids In Bile”, J. Lipid Research, 19:924-928, 1978.
A 20 μL aliquot of each fecal extract was added to each of two sets of triplicate wells in a 96-well assay plate. A standardized sodium taurocholate solution and a standardized fecal extract solution (previously made from pooled samples and characterized for its bile acid concentration) were also analyzed for assay quality control. A standard curve of five points containing 30-540 nmoles/well was generated by serial dilutions of an initial 20 μL aliquot of 90 mM sodium taurocholate. A 230 μL aliquot of a reaction mixture containing 1M hydrazine hydrate, 0.1 M pyrophosphate and 0.46 mg/ml NAD was added to each well. Subsequently, a 50 μL aliquot of either 3α-hydroxysteroid dehydrogenase (“HSD”) enzyme (0.8 units/mL) or assay buffer (0.1 M sodium pyrophosphate) was then added to one each of the two sets of triplicates. Following 60 minutes of incubation at room temperature, the optical density at 340 nm was measured and the mean of each set of triplicate samples was calculated. The difference in optical density with and without HSD enzyme was used to determine the bile acid concentration (mM) of each sample based on the sodium taurocholate standard curve. The bile acid concentration of the extract (μmoles/gram homogenate), the total weight of the fecal homogenate (grams) and the body weight of the dogs (kg) were used to calculate the corresponding fecal bile acid concentration in μtmoles/kg/day for each animal.
All reagents used for the assay were obtained from Sigma Chemical Co., St. Louis, Mo. (HSD enzyme—catalog # H-1506; NAD—catalog # N1636; sodium taurocholate—catalog # T-4009).

Male beagle dogs [2] = experiment: Serum triglyceride in beagle dogs; conditions: n = 6
Method: (§1) Following this initial four week dose-ranging study, dogs from the two groups receiving 10 mg/kg/day pravastatin (a.m. and p.m. dosing groups) were randomized into two new treatment groups based on serum total cholesterol levels to initiate the combination treatment study. […] Dosing continued in this manner for an additional four weeks (Weeks 5-8) with blood and 48-hour fecal samples collected at the end of each week for serum lipid measurements and fecal bile acid determinations, respectively. […] At the end of this three-week period, pravastatin dosing and all empty capsule dosing were discontinued and blood samples were collected weekly for a final three weeks (weeks 12-14) to monitor the return of serum total cholesterol levels back to baseline.
Blood was collected from the cephalic vein of each dog into serum separator tubes. The blood was centrifuged at 900×g for 20 minutes at room temperature and the serum decanted. All analyses were performed on a Cobas Mira Clinical Analyzer System (Roche Diagnostic Systems, Branchburg, N.J.) using Roche Diagnostic reagents for enzymatic determinations of serum cholesterol and triglycerides. Commercial calibrator and quality control materials were analyzed with each run to verify assay accuracy and precision. A two-tailed, paired Students t-test was used to determine the statistical significance of changes in total serum cholesterol in treated animals compared to their pretreatment values. A two-sample, two-tailed unequal variance Students t-test was used to determine serum total cholesterol and triglyceride changes in the combination therapy group compared to the monotherapy groups. […]

Male beagle dogs [3] = experiment: Body or fecal weights, stool consistency, general animal health of treated beagle dogs; conditions: any of the groups
Method: Male beagle dogs (9-10 kg) obtained from Marshall farms were fed a normal chow diet once a day for a two hour interval and given water ad libitum. Prior to initiating treatment, the dogs were weighed and blood samples were drawn from the cephalic vein of each dog following an overnight fast to evaluate pretreatment serum total cholesterol levels at the start of the study. […] All doses were administered in gelatin capsules per os to each dog between 9:00-9:30 a.m. prior to feeding. All animals were fed between 9:30-10:00 a.m. and were allowed two hours to eat, at which time any remaining food was removed. […] Animals were dosed daily for three weeks and blood samples were taken at the end of each week after an overnight fast for comparison with pretreatment serum total cholesterol levels. Three consecutive 24 hour fecal samples were collected for each group during the last 72 hours of each week and used to measure the concentration of fecal biles acids excreted during that time period.
as §1
Male beagle dogs (9-10 kg) obtained from Marshall farms were fed once a day for two hours and given water ad libitum.

[4] = compound A-5 monotherapy 4.0 mg/kg/day, dosed Weeks 5-8, Week 5, mean ± SEM
[5] = compound A-5 monotherapy 4.0 mg/kg/day, dosed Weeks 5-8, Week 6, mean ± SEM
[6] = compound A-5 monotherapy 4.0 mg/kg/day, dosed Weeks 5-8, Week 7, mean ± SEM
[7] = compound A-5 monotherapy 4.0 mg/kg/day, dosed Weeks 5-8, Week 8, mean ± SEM
[8] = compound A-5 monotherapy group, dosing terminated after Week 8, Week 9, mean ± SEM
[9] = compound A-5 monotherapy group, dosing terminated after Week 8, Week 10, mean ± SEM

Structure (SMILES): CCCCC1(CC)CS(=O)(=O)c2ccc(N(C)C)cc2[C@@H](c2cccc(OCc3ccc(C[N+]45CCN(CC4)CC5)cc3)c2)[C@H]1O.[Cl-] (stereo partly drawn) [Compound A-5]
- return of fecal bile acid levels to their pretreatment levels after the last day of compound A-5 dosing (Male beagle dogs [1]; Example 3, 4.0 mg/kg/day compound A-5 for four weeks, alone or with 10 mg/kg/day pravastatin): within one week
- FECAL BILE ACID CONCENTRATION (Male beagle dogs [1]; compound A-5 0.22 mg/kg/day per os, Week 1, mean ± SEM): 89 ± 9^3 μmol/day/kg
- % change in fecal bile acid (Male beagle dogs [1]; compound A-5 0.22 mg/kg/day per os): (270) %
- FECAL BILE ACID CONCENTRATION (Male beagle dogs [1]; compound A-5 0.22 mg/kg/day per os, Week 2, mean ± SEM): 100 ± 11^3 μmol/day/kg
- FECAL BILE ACID CONCENTRATION (Male beagle dogs [1]; compound A-5 0.22 mg/kg/day per os, Week 3, mean ± SEM): 81 ± 7^3 μmol/day/kg
- FECAL BILE ACID CONCENTRATION (Male beagle dogs [1]; compound A-5 0.66 mg/kg/day per os, Week 1, mean ± SEM): 134 ± 19^3 μmol/day/kg
- % change in fecal bile acid (Male beagle dogs [1]; compound A-5 0.66 mg/kg/day per os): (396) %
- FECAL BILE ACID CONCENTRATION (Male beagle dogs [1]; compound A-5 0.66 mg/kg/day per os, Week 2, mean ± SEM): 134 ± 16^3 μmol/day/kg
- FECAL BILE ACID CONCENTRATION (Male beagle dogs [1]; compound A-5 0.66 mg/kg/day per os, Week 3, mean ± SEM): 126 ± 12^3 μmol/day/kg
- FECAL BILE ACID CONCENTRATION (Male beagle dogs [1]; compound A-5 2.0 mg/kg/day per os, Week 1, mean ± SEM): 168 ± 13^3 μmol/day/kg
- % change in fecal bile acid (Male beagle dogs [1]; compound A-5 2.0 mg/kg/day per os): (411) %
- FECAL BILE ACID CONCENTRATION (Male beagle dogs [1]; compound A-5 2.0 mg/kg/day per os, Week 2, mean ± SEM): 138 ± 12^3 μmol/day/kg
- FECAL BILE ACID CONCENTRATION (Male beagle dogs [1]; compound A-5 2.0 mg/kg/day per os, Week 3, mean ± SEM): 164 ± 11^3 μmol/day/kg
- FECAL BILE ACID CONCENTRATION (Male beagle dogs [1]; compound A-5 6.0 mg/kg/day per os, Week 1, mean ± SEM): 190 ± 18^3 μmol/day/kg
- % change in fecal bile acid (Male beagle dogs [1]; compound A-5 6.0 mg/kg/day per os): (674) %
- FECAL BILE ACID CONCENTRATION (Male beagle dogs [1]; compound A-5 6.0 mg/kg/day per os, Week 2, mean ± SEM): 209 ± 27^3 μmol/day/kg
- FECAL BILE ACID CONCENTRATION (Male beagle dogs [1]; compound A-5 6.0 mg/kg/day per os, Week 3, mean ± SEM): 179 ± 16^3 μmol/day/kg
- % change in fecal bile acid concentration from Week 0 (Male beagle dogs [1]; compound A-5 monotherapy 4.0 mg/kg/day, dosed Weeks 5-8, Week 5): (+293)^4%
- FECAL BILE ACID CONCENTRATION (Male beagle dogs [1]; [4]): 106 ± 13^3 μmol/kg/day
- % change in fecal bile acid concentration from Week 0 (Male beagle dogs [1]; compound A-5 monotherapy 4.0 mg/kg/day, dosed Weeks 5-8, Week 6): (+374) %
- FECAL BILE ACID CONCENTRATION (Male beagle dogs [1]; [5]): 128 ± 17^3 μmol/kg/day
- % change in fecal bile acid concentration from Week 0 (Male beagle dogs [1]; compound A-5 monotherapy 4.0 mg/kg/day, dosed Weeks 5-8, Week 7): (+578) %
- FECAL BILE ACID CONCENTRATION (Male beagle dogs [1]; [6]): 183 ± 39^3 μmol/kg/day
- FECAL BILE ACID CONCENTRATION (Male beagle dogs [1]; [7]): 109 ± 23^3 μmol/kg/day
- % change in fecal bile acid concentration from Week 0 (Male beagle dogs [1]; compound A-5 monotherapy group, dosing terminated after Week 8, Week 9): (+48) %
- FECAL BILE ACID CONCENTRATION (Male beagle dogs [1]; [8]): 40 ± 6 µmol/kg/day
- % change in fecal bile acid concentration from Week 0 (Male beagle dogs [1]; compound A-5 monotherapy group, dosing terminated after Week 8, Week 10): (+59) %
- FECAL BILE ACID CONCENTRATION (Male beagle dogs [1]; [9]): 43 ± 4 µmol/kg/day
- TOTAL SERUM TRIGLYCERIDE (Male beagle dogs [2]; [4]): 37 ± 3 mg/dL
- TOTAL SERUM TRIGLYCERIDE (Male beagle dogs [2]; [5]): 32 ± 3 mg/dL
- TOTAL SERUM TRIGLYCERIDE (Male beagle dogs [2]; [6]): 36 ± 3 mg/dL
- TOTAL SERUM TRIGLYCERIDE (Male beagle dogs [2]; [7]): 34 ± 3 mg/dL
- TOTAL SERUM TRIGLYCERIDE (Male beagle dogs [2]; [8]): 39 ± 3 mg/dL
- TOTAL SERUM TRIGLYCERIDE (Male beagle dogs [2]; [9]): 42 ± 4 mg/dL
- TOTAL SERUM TRIGLYCERIDE (Male beagle dogs [2]; compound A-5 monotherapy group, dosing terminated after Week 8, Week 11, mean ± SEM): 34 ± 3 mg/dL
- TOTAL SERUM TRIGLYCERIDE (Male beagle dogs [2]; compound A-5 monotherapy group, dosing terminated after Week 8, Week 12, mean ± SEM): 51 ± 5 mg/dL
- TOTAL SERUM TRIGLYCERIDE (Male beagle dogs [2]; compound A-5 monotherapy group, dosing terminated after Week 8, Week 13, mean ± SEM): 46 ± 3 mg/dL
- changes in body or fecal weights, stool consistency or general animal health (Male beagle dogs [3]; Example 1, compound A-5 0.22-6.0 mg/kg/day for three weeks): no significant changes
- changes in body or fecal weights, stool consistency or general animal health (Male beagle dogs [3]; Example 3 study (pravastatin 3-30 mg/kg/day, compound A-5 4.0 mg/kg/day, combination)): no significant changes
